Experimental data published in patent US10479780B2, “Aminopyrazole derivatives” (Chugai Seiyaku Kabushiki Kaisha, priority 2015, dated 2019).

Key:
Type in all cases: biochemical
[1] = molecular target: T1, human Yes1 enzyme (Homo sapiens, UniProt P07947); test: Yes1 enzyme inhibitory activity (time-resolved fluorometry, biotinylated peptide phosphorylation); details: read-out: YES_IC50
T1 construct: made in house
In short: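 Inhibition was expressed against a compound-free control to give IC50, using TR-FRET read-out (Eu-cryptate anti-pTyr antibody, streptavidin-XL665).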

[2] = molecular target: T2, human Src enzyme (Homo sapiens, UniProt P12931); test: Src enzyme inhibitory activity (time-resolved fluorometry, biotinylated peptide phosphorylation); details: read-out: SRC_IC50
T2 construct: purchased Carna Biosciences, Inc. 08-173
In short: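 Compounds were tested for blocking tyrosine phosphorylation of a biotinylated peptide substrate by recombinant human Src. Phosphorylated product was quantified by time-resolved fluorometry using europium cryptate and XL665 conjugates, and IC50 was calculated against the compound-free control.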

[3] = molecular target: T3, human Lck enzyme (Homo sapiens, UniProt P06239); test: Lck enzyme inhibitory activity (time-resolved fluorometry, biotinylated peptide phosphorylation); details: read-out: LCK_IC50
T3 construct: purchased Carna Biosciences, Inc. 08-170
In short: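 Readout pairs a europium cryptate-labelled anti-phosphotyrosine antibody with XL665-streptavidin, measured by time-resolved fluorescence. IC50 derived from percent inhibition against untreated controls.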

T2 sequence (P12931 whole entry): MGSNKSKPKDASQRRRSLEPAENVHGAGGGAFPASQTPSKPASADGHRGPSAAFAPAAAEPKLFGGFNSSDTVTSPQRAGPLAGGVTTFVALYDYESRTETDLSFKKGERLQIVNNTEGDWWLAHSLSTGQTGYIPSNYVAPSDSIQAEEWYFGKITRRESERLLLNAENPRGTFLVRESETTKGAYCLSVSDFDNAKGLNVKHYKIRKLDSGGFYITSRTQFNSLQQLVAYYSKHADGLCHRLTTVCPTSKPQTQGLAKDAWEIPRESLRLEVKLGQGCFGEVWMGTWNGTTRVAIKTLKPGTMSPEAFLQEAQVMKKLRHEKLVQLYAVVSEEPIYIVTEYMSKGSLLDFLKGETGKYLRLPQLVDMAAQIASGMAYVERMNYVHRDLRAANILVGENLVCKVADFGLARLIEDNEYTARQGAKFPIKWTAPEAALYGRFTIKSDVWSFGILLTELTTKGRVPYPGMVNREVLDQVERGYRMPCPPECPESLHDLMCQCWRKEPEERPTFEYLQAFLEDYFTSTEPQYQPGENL
T3 sequence (P06239 whole entry): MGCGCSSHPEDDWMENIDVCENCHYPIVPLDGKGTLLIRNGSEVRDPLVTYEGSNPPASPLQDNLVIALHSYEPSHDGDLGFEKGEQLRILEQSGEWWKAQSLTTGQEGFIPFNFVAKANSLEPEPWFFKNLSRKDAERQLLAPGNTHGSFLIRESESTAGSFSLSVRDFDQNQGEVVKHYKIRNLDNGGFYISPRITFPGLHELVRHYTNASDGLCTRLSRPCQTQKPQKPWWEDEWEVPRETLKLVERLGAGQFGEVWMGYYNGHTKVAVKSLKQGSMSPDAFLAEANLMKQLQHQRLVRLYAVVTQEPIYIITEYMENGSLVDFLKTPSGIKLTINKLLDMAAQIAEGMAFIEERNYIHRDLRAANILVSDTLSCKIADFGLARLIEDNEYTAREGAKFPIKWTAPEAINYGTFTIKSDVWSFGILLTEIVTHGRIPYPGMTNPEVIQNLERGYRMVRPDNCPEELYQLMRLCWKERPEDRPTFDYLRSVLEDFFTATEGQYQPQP
T1 sequence (P07947 whole entry): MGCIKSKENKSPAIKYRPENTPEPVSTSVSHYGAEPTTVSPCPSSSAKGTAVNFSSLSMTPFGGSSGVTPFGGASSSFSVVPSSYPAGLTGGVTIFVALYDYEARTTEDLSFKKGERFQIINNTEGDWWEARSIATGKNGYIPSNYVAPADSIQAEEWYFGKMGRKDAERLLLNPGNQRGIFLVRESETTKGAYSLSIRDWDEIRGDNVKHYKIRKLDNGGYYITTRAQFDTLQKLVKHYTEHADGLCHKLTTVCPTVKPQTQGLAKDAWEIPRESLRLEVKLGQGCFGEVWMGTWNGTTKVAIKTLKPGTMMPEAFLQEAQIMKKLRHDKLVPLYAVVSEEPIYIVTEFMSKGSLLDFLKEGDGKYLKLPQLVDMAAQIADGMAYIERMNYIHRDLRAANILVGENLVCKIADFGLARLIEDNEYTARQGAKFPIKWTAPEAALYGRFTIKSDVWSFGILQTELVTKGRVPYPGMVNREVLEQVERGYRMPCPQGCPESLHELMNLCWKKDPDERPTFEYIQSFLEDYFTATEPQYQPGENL

Structure (SMILES) | IC50 [1] | IC50 [2] | IC50 [3]
CC(=O)N1CCC(c2cc3[nH]c(C(=O)c4cnn(-c5c(C)cc(Oc6ccccc6F)cc5F)c4N)cc3cc2C)CC1 [Example 5-1-138, 1-[4-[2-[5-amino-1-[2-fluoro-4-(2-fluorophenoxy)-6-methylphenyl]pyrazole-4-carbonyl]-5-methyl-1H-indol-6-yl]piperidin-1-yl] ethanone] | 3.1 nM | 68 nM | 42 nM
CC(=O)N1CCC(c2cc3[nH]c(C(=O)c4cnn(-c5cnc(Oc6c(F)cccc6F)cc5C)c4N)cc3cc2C)CC1 [Example 5-1-139, 1-[4-[2-[5-amino-1-[6-(2,6-difluorophenoxy)-4-methylpyridin-3-yl]pyrazole-4-carbonyl]-5-methyl-1H-indol-6-yl]piperidin-1-yl]ethanone] | 1.8 nM | 23 nM | 25 nM
Cc1cc2cc(C(=O)c3cnn(-c4c(C)cc(Oc5c(F)cccc5F)cc4F)c3N)[nH]c2cc1NS(C)(=O)=O [Example 5-1-140, N-[2-[5-amino-1-[4-(2,6-difluorophenoxy)-2-fluoro-6-methylphenyl]pyrazole-4-carbonyl]-5-methyl-1H-indol-6-yl]methanesulfonamide] | 2.8 nM | 48 nM | 24 nM
CCc1cc2cc(C(=O)c3cnn(-c4cnc(Oc5c(F)cccc5F)cc4C)c3N)[nH]c2cc1NS(C)(=O)=O [Example 5-1-141, N-[2-[5-amino-1-[6-(2,6-difluorophenoxy)-4-methylpyridin-3-yl]pyrazole-4-carbonyl]-5-ethyl-1H-indol-6-yl]methanesulfonamide] | 2.4 nM | 75 nM | 27 nM
Cc1cc2cc(C(=O)c3cnn(-c4c(C)cc(Oc5c(F)cccc5Cl)cc4F)c3N)[nH]c2cc1NS(C)(=O)=O [Example 5-1-142, N-[2-[5-amino-1-[4-(2-chloro-6-fluorophenoxy)-2-fluoro-6-methylphenyl]pyrazole-4-carbonyl]-5-methyl-1H-indol-6-yl] methanesulfonamide] | 5.6 nM | 99 nM | 52 nM
Cc1cc2cc(C(=O)c3cnn(-c4cnc(Oc5c(F)cccc5F)cc4C)c3N)[nH]c2cc1C1CCN(S(=O)(=O)C2CC2)CC1 [Example 5-1-144, [5-amino-1-[6-(2,6-difluorophenoxy)-4-methylpyridin-3-yl]pyrazol-4-yl]-[6-(1-cyclopropylsulfonylpiperidin-4-yl)-5-methyl-1H-indol-2-yl]methanone] | 5.7 nM | 81 nM | 76 nM
Cc1cc(Oc2c(F)cccc2F)ncc1-n1ncc(C(=O)c2cc3cc(OC(F)F)c(Br)cc3[nH]2)c1N [Example 5-1-149, [5-amino-1-[6-(2,6-difluorophenoxy)-4-methylpyridin-3-yl]pyrazol-4-yl]-[6-bromo-5-(difluoromethoxy)-1H-indol-2-yl]methanone] | 5 nM | 57 nM | 43 nM
Cc1cc(-n2ncc(C(=O)c3cc4cc(N5CCOCC5)c(Br)cc4[nH]3)c2N)ccc1Oc1ccccc1F [Example 5-1-151, [5-amino-1-[4-(2-fluorophenoxy)-3-methylphenyl]pyrazol-4-yl]-(6-bromo-5-morpholin-4-yl-1H-indol-2-yl)methanone] | 2.9 nM | 600 nM | 80 nM
Cc1cc(Oc2c(F)cccc2F)ncc1-n1ncc(C(=O)c2cc3cc(N4CCOCC4)c(Br)cc3[nH]2)c1N [Example 5-1-155, [5-amino-1-[6-(2,6-difluorophenoxy)-4-methylpyridin-3-yl]pyrazol-4-yl]-(6-bromo-5-morpholin-4-yl-1H-indol-2-yl)methanone] | 1.6 nM | 22 nM | 12 nM
Cc1cc(-n2ncc(C(=O)c3cc4cc(OC5CCN(C(C)C)CC5)c(NS(C)(=O)=O)cc4[nH]3)c2N)ccc1Oc1ccccc1F [Example 5-1-156, N-(2-(5-amino-1-(4-(2-fluorophenoxy)-3-methylphenyl)-1H-pyrazole-4-carbonyl)-5-((1-isopropylpiperidin-4-yl)oxy)-1H-indol-6-yl)methanesulfonamide] | 1.6 nM | 1100 nM | 64 nM

Continued by falling IC50 [1], values first:

IC50 [1] | IC50 [2] | IC50 [3] | Structure (SMILES)
1.6 nM | 16 nM | 8.2 nM | COc1cc2cc(C(=O)c3cnn(-c4cnc(Oc5ccccc5F)cc4C)c3N)[nH]c2cc1Br [Example 5-1-145, [5-amino-1-[6-(2-fluorophenoxy)-4-methylpyridin-3-yl]pyrazol-4-yl]-(6-bromo-5-methoxy-1H-indol-2-yl)methanone]
1.5 nM | 27 nM | 23 nM | Cc1cc2cc(C(=O)c3cnn(-c4cnc(Oc5c(F)cccc5F)cc4C)c3N)[nH]c2cc1NS(=O)(=O)CC(=O)NC(C)C [Example 5-1-136, 2-[[2-[5-amino-1-[6-(2,6-difluorophenoxy)-4-methylpyridin-3-yl]pyrazole-4-carbonyl]-5-methyl-1H-indol-6-yl]sulfamoyl]-N-propan-2-ylacetamide]
1.3 nM | 41 nM | 29 nM | COc1cc2cc(C(=O)c3cnn(-c4c(C)cc(Oc5ccccc5F)cc4F)c3N)[nH]c2cc1NS(=O)(=O)CC(=O)NC(C)C [Example 5-1-137, 2-[[2-[5-amino-1-[2-fluoro-4-(2-fluorophenoxy)-6-methylphenyl]pyrazole-4-carbonyl]-5-methoxy-1H-indol-6-yl]sulfamoyl]-N-propan-2-ylacetamide]
0.84 nM | 12 nM | 5.3 nM | Cc1cc(Oc2ccccc2F)ccc1-n1ncc(C(=O)c2cc3cc(F)c(NC4CCN(S(C)(=O)=O)CC4)cc3[nH]2)c1N [Example 5-1-135, [5-amino-1-[4-(2-fluorophenoxy)-2-methylphenyl]pyrazol-4-yl]-[5-fluoro-6-[(1-methylsulfonylpiperidin-4-yl)amino]-1H-indol-2-yl]methanone]
0.71 nM | 6.6 nM | 3.3 nM | CC(=O)N1CCC(c2cc3[nH]c(C(=O)c4cnn(-c5ccc(Oc6ccccc6F)cc5C)c4N)cc3cc2C)CC1 [Example 5-1-132, 1-[4-[2-[5-amino-1-[4-(2-fluorophenoxy)-2-methylphenyl]pyrazole-4-carbonyl]-5-methyl-1H-indol-6-yl]piperidin-1-yl]ethanone]
0.67 nM | 11 nM | 4.3 nM | Cc1cc(Oc2ccccc2F)cc(F)c1-n1ncc(C(=O)c2cc3cc(OC4CCN(C(C)C)CC4)c(Br)cc3[nH]2)c1N [Example 5-1-154, [5-amino-1-[2-fluoro-4-(2-fluorophenoxy)-6-methylphenyl]pyrazol-4-yl]-[6-bromo-5-(1-propan-2-ylpipendin-4-yl)oxy-1H-indol-2-yl] methanone]
0.63 nM | 6.1 nM | 2.5 nM | CC(=O)N1CCC(c2cc3[nH]c(C(=O)c4cnn(-c5cnc(Oc6ccccc6F)cc5C)c4N)cc3cc2C)CC1 [Example 5-1-133, 1-[4-[2-[5-amino-1-[6-(2-fluorophenoxy)-4-methylpyridin-3-yl]pyrazole-4-carbonyl]-5-methyl-1H-indol-6-yl]piperidin-1-yl]ethanone]
0.59 nM | 15 nM | 11 nM | COc1cc2cc(C(=O)c3cnn(-c4cnc(Oc5c(F)cccc5F)cc4C)c3N)[nH]c2cc1NS(=O)(=O)CC(=O)N1CCOCC1 [Example 5-1-143, N-[2-[5-amino-1-[6-(2,6-difluorophenoxy)-4-methylpyridin-3-yl]pyrazole-4-carbonyl]-5-methoxy-1H-indol-6-yl]-2-morpholin-4-yl-2-oxoethanesulfonamide]
0.57 nM | 5.1 nM | 12 nM | Cc1cc(Oc2ccccc2F)ccc1-n1ncc(C(=O)c2cc3cc(N4CCOCC4)c(Br)cc3[nH]2)c1N [Example 5-1-147, [5-amino-1-[4-(2-fluorophenoxy)-2-methylphenyl]pyrazol-4-yl]-(6-bromo-5-morpholin-4-yl-1H-indol-2-yl)methanone]
0.57 nM | 180 nM | 47 nM | Cc1cc(-n2ncc(C(=O)c3cc4cc(OC5CCN(C(C)C)CC5)c(Br)cc4[nH]3)c2N)ccc1Oc1ccccc1F [Example 5-1-148, [5-amino-1-[4-(2-fluorophenoxy)-3-methylphenyl]pyrazol-4-yl]-[6-bromo-5-(1-propan-2-ylpiperidin-4-yl)oxy-1H-indol-2-yl] methanone]
0.53 nM | 7.9 nM | 3 nM | Cc1cc(Oc2ccccc2F)ncc1-n1ncc(C(=O)c2cc3cc(OC4CCN(C(C)C)CC4)c(Br)cc3[nH]2)c1N [Example 5-1-153, [5-amino-1-[6-(2-fluorophenoxy)-4-methylpyridin-3-yl]pyrazol-4-yl]-[6-bromo-5-(1-propan-2-ylpiperidin-4-yl)oxy-1H-indol-2-yl] methanone]
0.37 nM | 4.6 nM | 2.1 nM | Cc1cc(Oc2c(F)cccc2F)ncc1-n1ncc(C(=O)c2cc3cc(OC4CCN(C(C)C)CC4)c(Br)cc3[nH]2)c1N [Example 5-1-134, [5-amino-1-[6-(2,6-difluorophenoxy)-4-methylpyridin-3-yl]pyrazol-4-yl]-[6-bromo-5-(1-propan-2-ylpiperidin-4-yl)oxy-1H-indol-2-yl] methanone]
0.27 nM | 2.2 nM | 5.3 nM | Cc1cc(Oc2ccccc2F)ccc1-n1ncc(C(=O)c2cc3cc(OC4CCN(C(C)C)CC4)c(Br)cc3[nH]2)c1N [Example 5-1-146, [5-amino-1-[4-(2-fluorophenoxy)-2-methylphenyl]pyrazol-4-yl]-[6-bromo-5-(1-propan-2-ylpiperidin-4-yl)oxy-1H-indol-2-yl] methanone]
